Assay results reported in patent publication US9610332B2, “Compositions and methods for modulating BRD4 bioactivity” (priority 2012, dated 2017).

Columns and labels:
[1] = system: U20S cells overexpressing Brd4 isoform B; assay: γH2AX foci / DDR signaling suppression in cells overexpressing Brd4 isoform B; type: cell-based, human; conditions: for sensitivity of suppression of DDR signaling by Brd4 isoform B overexpression to transcription or translation inhibition: a-amanitin 1-16 μM, cycloheximide 35-560 μM
Experimental: U20S cells were plated on #1 glass coverslips (VWR) and were cultured in DMEM+Pen/Strep+10% v/v FBS (complete media) at 37° C. in a 5% CO2 atmosphere, then exposed to 10 Gy Ionizing radiation from a 137CS source in a Gammacell irradiator (Atomic Energy of Canada, Ltd). fixed in methanol, and processed for immuofluorescence using the antibodies indicated above. Images were captured on a Zeiss Axiophot II microscope with a Hamamatsu CCD camera and processed with OpenLab/Volocity software. Quantitative image analysis was accomplished using CellProfiler (www.CellProfiler.org) or ImageJ software (http://rsb.info.nih.gov/nihimageJ).
(§1) UCN01 was from Sigma (cat. #U6508) and was used at concentrations of 0.003-10 μM.
3×10^6 U20S cells were plated and transiently transfected with pEGFP-C 1, isoform C, isoform B, isoform B, BD1 mutant, Brd4-NUT and truncated Brd4-NUT using Fugene 6 (Roche). These cells were exposed to 10 Gy Ionizing radiation and harvested 24 hrs later, fixed with 4% formaldehyde, extracted with 100% ethanol, processed for flow cytometry using the antibodies listed above. Data were analyzed using FlowJo (www.flowjo.com) software.
U20S cell lines stably expressing this shRNA or control hairpins (ineffective hairpins directed against human sequences of BAD and PUMA) were created using puromycin selection at 2 ug/mL. STEALTH siRNA against BRD4 and control were purchased from Invitrogen, and used according to manufacturer's instructions.

CHEK2 mRNA = CHEK2 mRNA expression by RT-PCR; type: cell-based, human; conditions: short term treatment; FIG. 6B, 6C
Experimental: as §1

U20S cells [2] = assay: H2AX phosphorylation / γH2AX foci after IR with Brd4 bromodomain inhibitor; type: cell-based, human
Experimental: For small molecule testing, cells were plated at 500 cells/well in 384-well plates. The day after plating, small molecules at different concentrations in 100 nL DMSO were pin transferred to cells with a CyBio robot, and cells were propagated for 16 hours.
All plates were treated with 10 Gy of 667 keV X-rays from a 137Cs source in a Gammacell irradiator (Atomic Energy of Canada, Ltd). A 0 hour control plate was not irradiated. The plates were returned to the incubator and fixed with 4.4% w/v paraformaldehyde in phosphate-buffered saline (PBS) at 1, 6, and 24 hours post irradiation. Plates were stored in PBS at 4° C. prior to staining. Fixed plates were washed 3 times with PBS and blocked with 24 IJL of GSDB (0.15% goat serum, 8.33% goat serum, 120 mM sodium phosphate, 225 mM NaCl) for 30 minutes. […]
U20S cells were plated on #1 glass coverslips (VWR) and were cultured in DMEM+Pen/Strep+10% v/v FBS (complete media) at 37° C. in a 5% CO2 atmosphere, then exposed to 10 Gy Ionizing radiation from a 137CS source in a Gammacell irradiator (Atomic Energy of Canada, Ltd). fixed in methanol, and processed for immuofluorescence using the antibodies indicated above. […] Quantitative image analysis was accomplished using CellProfiler (www.CellProfiler.org) or ImageJ software (http://rsb.info.nih.gov/nihimageJ).

Brd4 bromodomain 1 = Brd4 bromodomain 1 (Homo sapiens, UniProt O60885); conditions: as reported previously (Nature 468:1067 (2010)); cited from earlier work
U20S cells [3] = assay: Image-based screen: G2/M arrest and mitotic entry (DNA content, pHH3) after irradiation; type: cell-based, human; conditions: 10 Gy IR, FIGS. 1B, 1D, 1F, 1G
Experimental: For both shRNA and small molecule screens, human U20S osteosarcoma cells (ATCC HTB-96) were grown in DMEM+Pen/Strep+10% v/v FBS (complete media) at 37° C. in a 5% CO2 atmosphere. All screens were carried out at passage 10-15. Cells were tested for mycoplasma by PCR prior to seeding and infection. U20S cells were seeded with a MicroFill (Biotek) in 384-well black, clear bottom plates (Greiner) at a density of 300 (shRNA) cells/well in 50 IJL of media, and allowed to attach overnight at 37° C. in a 5% CO2 atmosphere.
For shRNA screens, the media was exchanged the following day to complete media with 8 μg/mL polybrene using a JANUS workstation (PerkinElmer). Virus infection was carried out on an EP3 workstation (PerkinElmer) with 1.5 μL of hightiter retrovirus. […] Plates were centrifuged in a swinging-bucket rotor at 2250 rpm for 30 minutes following infection and returned to the incubator overnight. […]
Plates were allowed to equilibrate to room temperature for 30 minutes and imaged on a Cellomics ArrayScan VTI automated microscope with a 20× objective. […] Images were segmented and analyzed with CellProfiler cell image analysis software (Carpenter et al., Genome Biology, 2006, 7, R100). […]

a-amanitin
sensitivity of suppression of DDR signaling by Brd4 isoform B overexpression to transcription or translation inhibition [1]: insensitive

C[C@@H]1C[C@@H]([C@H](O)CC2CC(=O)NC(=O)C2)C(=O)[C@@H](C)C1 [cycloheximide]
sensitivity of suppression of DDR signaling by Brd4 isoform B overexpression to transcription or translation inhibition [1]: insensitive

Cc1sc2c(c1C)C(c1ccc(Cl)cc1)=NC(CC(=O)OC(C)(C)C)c1nnc(C)n1-2 (single isomer, unassigned; (+)) [(+)JQ1]
CHEK2 mRNA (CHEK2 mRNA): no change in CHEK2 mRNA | H2AX phosphorylation following IR (U20S cells [2]; compound at 250 nM, 10 Gy IR): enhanced H2AX phosphorylation following IR | γH2AX foci formation after irradiation (U20S cells [2]; inhibition with JQ1 or short term Brd4 knockdown): sufficient to increase γH2AX foci formation after irradiation | inhibition of Brd4 bromodomain 1 versus bromodomain 2 (Brd4 bromodomain 1): more potent inhibition of Brd4 bromodomain 1 than bromodomain 2 | reversal of the ability of Brd4 isoform B to suppress γH2AX foci formation ([1]; cells overexpressing Brd4 isoform B, compound at 250 nM): reversed

CN[C@@H]1C[C@H]2O[C@@](C)([C@@H]1OC)n1c3ccccc3c3c4c(c5c6ccccc6n2c5c31)C(=O)N[C@@H]4O [UCN01]
G2/M arrest following irradiation / mitotic entry (U20S cells [3]): abrogated the normal G2/M arrest following irradiation, leading to premature mitotic entry
